Columns and labels:
Format in all cases: cell-based
[1] = system: Wnt activity (Sp5-Luc reporter, TCF/LEF binding sites) in SW480 colon carcinoma cells; experiment: Wnt activity screening assay: Sp5-Luc reporter gene assay in SW480 cells; details: Homo sapiens; Sp5-Luc reporter, SW480 cells, overnight incubation
Source text: The screening assay for Wnt activity is described as follows. Reporter cell lines can be generated by stably transducing cancer cell lines (e.g., colon cancer) or primary cells (e.g., IEC-6 intestinal cells) with a lentiviral construct that includes a Wnt-responsive promoter driving expression of the firefly luciferase gene.
SW480 colon carcinoma cells were transduced with a lentiviral vector expressing luciferase with a human Sp5 promoter consisting of a sequence of eight TCF/LEF binding sites. SW480 cells stably expressing the Sp5-Luc reporter gene and a hygromycin resistance gene were selected by treatment with 150 μg/mL of hygromycin for 7 days. These stably transduced SW480 cells were expanded in cell culture and used for all further screening activities. […] For Sp5-Luc reporter gene assays, the cells were plated at 4,000 cells/well in 384-well plates with medium containing 1% fetal bovine serum and incubated overnight at 37° C. and 5% CO2. Following incubation, 20 μl of BrightGlo luminescence reagent (Promega) was added to each well of the 384-well assay plates. The plates were placed on an orbital shaker for 2 min and then luminescence was quantified using the Envision (Perkin Elmer) plate reader. Readings were normalized to DMSO only treated cells, and normalized activities were utilized for EC50 calculations using the dose-response log (inhibitor) vs. response variable slope (four parameters) nonlinear regression feature available in GraphPad Prism 5.0 (or Dotmatics).

[2] = system: SW480 colon cancer cells; experiment: Cell viability assay (CellTiter-Blue) in SW480 colon cancer cells; details: Homo sapiens, 96 h; SW480 cell viability, four days, CellTiter-Blue
Experimental: Representative compounds were screened using the following assay procedure to assess the effect on cell viability as described below.
Approximately 2×10^3 SW480 colon cancer cells were seeded into each well and allowed to incubate in the presence or absence of compound for four days at 37° C./5% CO2. Eight replicates of DMSO-treated cells served as controls and cells treated with compound were performed in duplicate.
After incubation, 20 μL of CellTiter-Blue (Promega) was added to each well allowed to incubate for approximately 3 hours. This reagent was a buffered solution which contains resazurin, metabolically active cells were able to reduce rezarurin (blue) into resorufin (pink) which was highly fluorescent. This measured fluorescence was used as a readout for cell viability.

[3] = system: LL29 cells (primary human fibroblasts derived from IPF patients), α-smooth muscle actin; experiment: Inhibition of the fibrotic process: αSMA staining in TGF-β1 treated primary human fibroblasts from IPF patients (LL29 cells); details: Fibroblast; for EC50: 96 h, LL29 cells, TGF-β1 20 ng/mL, 4 days, % αSMA positive cells
Experimental: Representative compounds were screened using primary human fibroblasts (derived from IPF patients) treated with TGF-β1 to determine their ability to inhibit the fibrotic process.
LL29 cells are plated at 1,500 cells/well in 80 μL/well F12 medium supplemented with 1% Fetal Bovine Serum. […] Wells treated with TGF-β1 and containing DMSO were used as controls. […] Following incubation for 4 days, SYTOX green nucleic acid stain (Life Technologies [Thermo Fisher Scientific]) was added to the wells at a final concentration of 1 μM and incubated at room temperature for 30 min.

[4] = system: primary human mesenchymal stem cells (hMSCs); experiment: Induction of chondrogenesis in primary human mesenchymal stem cells (chondrogenic nodules, Rhodamine B / Nile Red); details: 6 days; for EC50: concentration required to induce 50% levels of chondrogenesis vs TGF-β3, read-out: Conc (nM) of 50% TGF-β3 activity; for Emax: relative to TGF-β3 (10 ng/mL) positive control, read-out: Max. Activity as % TGF-β3 activity
Source text: Representative compounds were screened using primary human mesenchymal stem cells (hMSCs) to determine their ability to induce chondrogenesis (process by which cartilage is developed).
Human Mesenchymal Stem Cell Culture: Primary human mesenchymal stem cells (hMSCs) were purchased from Lonza (Walkersville, Md.) and expanded in Mesenchymal Stem Cell Growth Media (Lonza). Cells between passage 3 and 6 were used for the experiments.
To image chondrogenic nodules, the cells were fixed using 4% formaldehyde (Electron Microscopy Sciences), and stained with 2 μg/mL Rhodamine B (Sigma-Aldrich) and 20 μM Nile Red (Sigma-Aldrich) [Johnson K., et. al, A Stem Cell-Based Approach to Cartilage Repair, Science, (2012). […] Number of nodules in each well was normalized to the average of 3 DMSO treated wells on the same plate using Excel (Microsoft Inc.). The normalized averages (fold change over DMSO) of 3 replicate wells for each compound concentration were calculated. Due to solubility limitations of some of the compounds, curve fitting was incomplete leading to inaccurate EC50 determinations.
Using TGF-β3 as a positive control, the concentration of representative compounds required to induce 50% levels of chondrogenesis is reported. In addition, the maximum activity of each compound and the respective dose that each compound reached maximum chondrogenesis activity is reported.

[5] = system: IL-6 in THP-1 cells; experiment: IL-6 inhibition in LPS-stimulated THP-1 human monocyte cells (HTRF); details: for EC50: IL-6 inhibition, LPS-stimulated THP-1 cells, HTRF, 10-point dose-response starting from 10 μM
Experimental: Compound Screening: THP-1 cells were cultured in basal media with 1% FBS for 24 hours before the start of the assay. […] THP-1 cells were plated at 5000 cells/well in the 384-well plates and incubated at 37° C. for 2 h. 500 ng/mL of LPS was added after 2 hours and cells were incubated for another 22 hours at 37° C. Plates were spun in a centrifuge for 1 minute at […] and a mixture of anti-IL6 XL665, and anti-IL6 Cryptate diluted in reconstitution buffer (Cisbio Inc.) was added to each well. Following incubation for 3 hrs at room temperature, Homogeneous Time-Resolved Fluorescence (HTRF) was measured using the Envision (Perkin Elmer) at 665 nm and […]. The ratio of fluorescence at 665 nm to 620 nm was used as a readout for IL6 quantification. All samples were processed in duplicate. Readings were normalized to DMSO treated cells and normalized activities were utilized for EC50 calculations using the dose-response log (inhibitor) vs. response variable slope (four parameters) nonlinear regression feature available in GraphPad Prism 5.0 (or Dotmatics).

## O=C(Nc1cncc(-c2cnc3[nH]nc(-c4cc5c(-c6ccc(F)cc6)nccc5[nH]4)c3c2)c1)C1CCC1 [Compound 49, N-(5-(3-(4-(4-Fluorophenyl)-1H-pyrrolo[3,2-c]pyridin-2-yl)-1H-pyrazolo[3,4-b]pyridin-5-yl)pyridin-3-yl)cyclobutanecarboxamide]
[1]
  EC50: 1170 nM
[2]
  EC50: 595 nM
[3]
  EC50: 360 nM
[4]
  EC50: 10 nM
  Emax: 208%
[5]
  EC50: 1480 nM

## Fc1ccc(-c2nccc3[nH]c(-c4n[nH]c5ncc(-c6cncc(CNCc7ccccc7)c6)cc45)cc23)cc1 [Compound 52, N-Benzyl-1-(5-(3-(4-(4-fluorophenyl)-1H-pyrrolo[3,2-c]pyridin-2-yl)-1H-pyrazolo[3,4-b]pyridin-5-yl)pyridin-3-yl)methanamine]
[1]
  EC50: 854 nM
[2]
  EC50: 346 nM
[3]
  EC50: 458 nM
[4]
  EC50: 900 nM
  Emax: 179%
[5]
  EC50: 1260 nM

## Nc1cncc(-c2cnc3[nH]nc(-c4cc5c(-c6ccccc6F)nccc5[nH]4)c3c2)c1 [Compound 59, 5-(3-(4-(2-Fluorophenyl)-1H-pyrrolo[3,2-c]pyridin-2-yl)-1H-pyrazolo[3,4-b]pyridin-5-yl)pyridin-3-amine]
[1]
  EC50: 197 nM
[2]
  EC50: 762 nM
[3]
  EC50: 2280 nM
[4]
  EC50: 30 nM
  Emax: 86%
[5]
  EC50: 198 nM

## CCNCc1cncc(-c2cnc3[nH]nc(-c4cc5c(-c6ccccc6F)nccc5[nH]4)c3c2)c1 [Compound 62, N-((5-(3-(4-(2-Fluorophenyl)-1H-pyrrolo[3,2-c]pyridin-2-yl)-1H-pyrazolo[3,4-b]pyridin-5-yl)pyridin-3-yl)methyl)ethanamine]
[1]
  EC50: 1080 nM
[2]
  EC50: 923 nM
[3]
  EC50: 2370 nM
[4]
  Emax: 52%
[5]
  EC50: 1890 nM

## O=C(Nc1cncc(-c2cnc3[nH]nc(-c4cc5c(-c6ccccc6F)nccc5[nH]4)c3c2)c1)c1ccccc1 [Compound 67, N-(5-(3-(4-(2-Fluorophenyl)-1H-pyrrolo[3,2-c]pyridin-2-yl)-1H-pyrazolo[3,4-b]pyridin-5-yl)pyridin-3-yl)benzamide]
[1]
  EC50: 1980 nM
[2]
  EC50: 1620 nM
[3]
  EC50: > 10000 nM
[3]; read-out: percent inhibition at 10 μM
  inhibition at 10 µM: 6.3%
[4]
  EC50: 10 nM
  Emax: 101%
[5]
  EC50: > 10000 nM
[5]; THP-1, read-out: percentage in parentheses beside EC50 >10
  inhibition at 10 µM: 41.4%

## CC(C)Nc1cncc(-c2cnc3[nH]nc(-c4cc5c(-c6ccccc6F)nccc5[nH]4)c3c2)c1 [Compound 68, 5-(3-(4-(2-Fluorophenyl)-1H-pyrrolo[3,2-c]pyridin-2-yl)-1H-pyrazolo[3,4-b]pyridin-5-yl)-N-isopropylpyridin-3-amine]
[1]
  EC50: 435 nM
[2]
  EC50: 959 nM
[3]
  EC50: 1890 nM
[4]
  EC50: 10 nM
  Emax: 76%
[5]
  EC50: 235 nM
